Source: ChEMBL document CHEMBL3399980, “Synthesis and biological evaluation of novel selective androgen receptor modulators (SARMs). Part I” (Bioorg Med Chem, 2015)

How the values were obtained:
[1] = biological target: T1, Androgen receptor (Homo sapiens, UniProt P10275); experiment: Displacement of [3H]mibolerone from androgen receptor (unknown origin) after 3 hrs
T1 sequence (P10275 whole entry): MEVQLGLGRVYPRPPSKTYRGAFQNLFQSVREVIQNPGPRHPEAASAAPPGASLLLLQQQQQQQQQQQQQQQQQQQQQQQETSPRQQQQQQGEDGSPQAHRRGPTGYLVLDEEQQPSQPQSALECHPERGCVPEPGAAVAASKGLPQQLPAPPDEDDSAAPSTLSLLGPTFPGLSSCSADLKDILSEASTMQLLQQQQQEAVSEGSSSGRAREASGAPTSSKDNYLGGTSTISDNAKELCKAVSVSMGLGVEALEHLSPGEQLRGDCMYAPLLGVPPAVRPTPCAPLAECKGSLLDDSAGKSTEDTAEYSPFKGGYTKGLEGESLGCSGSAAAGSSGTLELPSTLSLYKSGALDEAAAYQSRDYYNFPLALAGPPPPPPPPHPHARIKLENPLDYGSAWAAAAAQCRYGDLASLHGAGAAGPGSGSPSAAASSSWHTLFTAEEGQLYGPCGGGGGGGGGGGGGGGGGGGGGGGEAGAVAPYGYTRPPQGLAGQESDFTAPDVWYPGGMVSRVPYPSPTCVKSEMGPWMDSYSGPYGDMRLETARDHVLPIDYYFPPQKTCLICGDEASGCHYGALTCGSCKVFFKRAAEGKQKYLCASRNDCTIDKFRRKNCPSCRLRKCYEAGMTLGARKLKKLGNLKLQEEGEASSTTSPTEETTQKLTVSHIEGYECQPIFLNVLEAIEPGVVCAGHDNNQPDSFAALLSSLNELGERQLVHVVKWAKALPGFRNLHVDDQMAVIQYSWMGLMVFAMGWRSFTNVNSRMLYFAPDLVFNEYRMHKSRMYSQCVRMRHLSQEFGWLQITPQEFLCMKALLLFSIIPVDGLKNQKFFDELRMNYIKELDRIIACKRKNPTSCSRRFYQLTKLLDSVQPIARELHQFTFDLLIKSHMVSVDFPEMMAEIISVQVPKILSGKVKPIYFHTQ

[2] = biological target: T1, Androgen receptor; experiment: Modulation of androgen receptor (unknown origin) expressed in Cos7 cells assessed as luciferase activity after 24 hrs; type: cell-based, COS-7
[3] = test system: Rattus norvegicus; experiment: Induction of levator ani muscle weight in male CD(SD)IGS rat at 1.5 mg/kg, po bid for 4 days by Hershberger assay; type: functional
[4] = test system: Rattus norvegicus; experiment: Toxicity in male CD(SD)IGS rat assessed as effect on prostate weight at 1.5 mg/kg, po bid for 4 days by Hershberger assay; type: organism-based, Prostate gland; design: dose 1.5 mg/kg, route oral; conditions: in vivo, 96 h
[5] = test system: Rattus norvegicus; experiment: Toxicity in male CD(SD)IGS rat assessed as effect on seminal vesicle weight at 1.5 mg/kg, po bid for 4 days by Hershberger assay; type: organism-based; design: dose 1.5 mg/kg, route oral; conditions: in vivo, 96 h
[6] = test system: Rattus norvegicus; experiment: Induction of sexual behavior in castrated male CD(SD)IGS rat assessed as pseudopregnancy rate in female rat at 0.5 mg/kg, po bid measured on day 21 after first treatment (reference value: 0%); type: functional
[7] = test system: Rattus norvegicus; experiment: Induction of sexual behavior in castrated male CD(SD)IGS rat assessed as pseudopregnancy rate in female rat at 1.5 mg/kg, po bid measured on day 21 after first treatment (reference value: 0%); type: functional
[8] = test system: Rattus norvegicus; experiment: Induction of sexual behavior in castrated male CD(SD)IGS rat assessed as pseudopregnancy rate in female rat at 5 mg/kg, po bid measured on day 21 after first treatment (reference value: 0%); type: functional
[9] = test system: Brain; experiment: Drug uptake in male Sprague-Dawley rat brain at 5 mg/kg, po; type: ADME, organism-based; design: dose 5 mg/kg, route oral; conditions: in vivo
[10] = test system: Plasma; experiment: Drug uptake in male Sprague-Dawley rat plasma at 5 mg/kg, po; type: ADME, organism-based; design: dose 5 mg/kg, route oral; conditions: in vivo
[11] = test system: Prostate gland; experiment: Drug uptake in male Sprague-Dawley rat prostate at 5 mg/kg, po; type: ADME, organism-based; design: dose 5 mg/kg, route oral; conditions: in vivo
[12] = Drug uptake in male Sprague-Dawley rat levator ani muscle at 5 mg/kg, po; type: ADME, organism-based; design: dose 5 mg/kg, route oral; conditions: in vivo
[13] = test system: Rattus norvegicus; experiment: Induction of sexual behavior in castrated male CD(SD)IGS rat assessed as pseudopregnancy rate in female rat at 2.5 mg/kg, po bid measured on day 21 after first treatment (reference value: 0%); type: functional
[14] = test system: Rattus norvegicus; experiment: Induction of sexual behavior in castrated male CD(SD)IGS rat assessed as pseudopregnancy rate in female rat at 3.5 mg/kg, po bid measured on day 21 after first treatment (reference value: 0%); type: functional

Row | SMILES | IC50 [1] [nM] | EC50 [2] [nM] | further results
1 | O=C(O)c1ccc(N2CCCC2)c2ccccc12 | > 10000 | – | –
2 | C[C@H]1CCCN1c1ccc(C#N)c2ccccc12 | 0.84 | 0.19 | –
3 | C[C@@H]1CCCN1c1ccc(C#N)c2ccccc12 | 20 | > 1000 | –
4 | CC1(C)CCCN1c1ccc(C#N)c2ccccc12 | 7 | 21 | –
5 | CC[C@H]1CCCN1c1ccc(C#N)c2ccccc12 | 1.1 | 0.24 | –
6 | CC(C)[C@H]1CCCN1c1ccc(C#N)c2ccccc12 | 1.4 | 2 | –
7 | N#Cc1ccc(N2CCC[C@@H]2C(N)=O)c2ccccc12 | 34 | 21 | –
8 | N#Cc1ccc(N2CCC[C@@H]2C#N)c2ccccc12 | 1 | 160 | –
9 | C[C@H]1[C@@H](O)CCN1c1ccc(C#N)c2ccccc12 | 2.2 | 0.25 | Activity [3]: 150%; Activity [4]: Non-toxic; Activity [5]: Non-toxic; Activity [6]: 44%; Activity [7]: 70%; Activity [8]: 80%
10 | C[C@H]1[C@H](O)CCN1c1ccc(C#N)c2ccccc12 | 2.4 | 0.32 | Activity [3]: 150%; Activity [4]: Non-toxic; Activity [5]: Non-toxic; Activity [6]: 38%; Activity [7]: 67%; Activity [8]: 67%
11 | C[C@H]1C(=O)CCN1c1ccc(C#N)c2ccccc12 | 37 | 2.2 | –
12 | C[C@H]1[C@@H](CO)CCN1c1ccc(C#N)c2ccccc12 | 4.1 | 1.2 | –
13 | C[C@H]1[C@@H](C(C)(C)O)CCN1c1ccc(C#N)c2ccccc12 | 1.4 | 45 | Activity [4]: Non-toxic; Activity [5]: Non-toxic; Drug uptake [9]: Active; Drug uptake [10]: Active; Drug uptake [11]: Active; Drug uptake [12]: Active; Activity [13]: 57%; Activity [14]: 57%; Activity [8]: 50%
14 | COC(=O)[C@H]1CCN(c2ccc(C#N)c3ccccc23)[C@H]1C | 7.5 | > 1000 | –
15 | O=[N+]([O-])c1ccc(N2CCCC2)c2ccccc12 | 2.5 | 41 | –
16 | N#Cc1ccc(N2CCCC2)c2ccccc12 | 2.5 | 2.5 | –
